Data as given in ChEMBL document CHEMBL3286208, “Pyranocoumarins from Glehnia littoralis inhibit the LPS-induced NO production in macrophage RAW 264.7 cells” (Bioorg Med Chem Lett, 2014).

Tests used:
[1] = tested on: RAW264.7; test: Inhibition of LPS-induced NO production in mouse RAW264.7 cells after 24 hrs by Griess method; type: functional, cell-based; conditions: RAW264.7, 24 h
[2] = Cytotoxicity against mouse RAW264.7 cells assessed as cell viability at 0.5 to 50 uM; type: cell-based; conditions: read-out: Activity

## CC(C)=CC(=O)O[C@H]1c2c(ccc3ccc(=O)oc23)OC(C)(C)[C@H]1OC(=O)CC(C)C
[1]
  IC50: 9.9 µM
[2]
  viability at up to 50 µM: > 90%

## CC(C)CC(=O)O[C@H]1c2c(ccc3ccc(=O)oc23)OC(C)(C)[C@H]1OC(=O)CC(C)C
[1]
  IC50: 7.4 µM
[2]
  viability at up to 50 µM: > 90%

## CC(C)=CC(=O)O[C@H]1c2c(ccc3ccc(=O)oc23)OC(C)(C)[C@H]1OC(=O)C=C(C)C
[1]
  IC50: 9.8 µM
[2]
  viability at up to 50 µM: > 90%

## CC(=O)O[C@H]1c2c(ccc3ccc(=O)oc23)OC(C)(C)[C@H]1OC(=O)C=C(C)C
[1]
  IC50: 44.3 µM
[2]
  viability at up to 50 µM: > 90%

## CC(=O)O[C@H]1c2c(ccc3ccc(=O)oc23)OC(C)(C)[C@H]1OC(=O)CC(C)C
[1]
  IC50: 18.8 µM
[2]
  viability at up to 50 µM: > 90%

## CC(C)C(=O)O[C@H]1c2c(ccc3ccc(=O)oc23)OC(C)(C)[C@H]1OC(=O)C(C)C
[1]
  IC50: 28.2 µM
[2]
  viability at up to 50 µM: > 90%

## N=C(N)NN [PIMAGEDINE]
[1]
  IC50: 16.9 µM
